Source: ChEMBL document CHEMBL1157099, “Proline-containing cyclopeptides from the marine sponge Phakellia fusca” (J Nat Prod, 2010)
Activity calls are given as the source filed them. No cut-off for these calls is given here. Residues, ends and D or L forms follow the SMILES beside them.

Experiments:
P388 = test: Cytotoxicity against mouse P388 cells after 48 hrs by MTT assay; assay type: functional, cell-based; conditions: for IC50: P388, 48 h
Bel-7402 = test: Cytotoxicity against human Bel7402 cells after 48 hrs by MTT assay; assay type: functional, cell-based

Compound: CC[C@H](C)[C@@H]1NC(=O)[C@H](Cc2c[nH]c3ccccc23)NC(=O)[C@@H]2CCCN2C(=O)[C@H](CC(C)C)NC(=O)[C@@H]2CCCN2C(=O)[C@H]([C@@H](C)O)NC(=O)[C@H](CC(C)C)NC(=O)[C@@H]2CCCN2C1=O [PHAKELLISTATIN 15] (cyclo(IPLTPLPW))
- IC50 (P388): 8.5 µM

Compound: CC(C)[C@@H]1NC(=O)[C@H](C)NC(=O)[C@H](CCCNC(=N)N)NC(=O)[C@H](CO)NC(=O)[C@H](CC(=O)O)NC(=O)[C@H](Cc2ccccc2)NC(=O)[C@@H]2CCCN2C(=O)[C@H](Cc2ccc(O)cc2)NC(=O)[C@H]([C@@H](C)O)NC1=O [PHAKELLISTATIN 16] (cyclo(AVTYPFDSR))
- IC50 (P388): 5.4 µM
- IC50 (Bel-7402; Bel-7402, 48 h): 14.3 µM

Compound: CC[C@H](C)[C@@H]1NC(=O)[C@H](CC(C)C)NC(=O)[C@@H]2CCCN2C(=O)[C@H](C(C)C)NC(=O)[C@H](Cc2c[nH]c3ccccc23)NC(=O)[C@@H]2CCCN2C(=O)[C@H]([C@@H](C)CC)NC(=O)[C@@H]2CCCN2C1=O (cyclo(IPIPWVPL))
- Activity (P388): inactive
- Activity (Bel-7402): inactive
